From the supplement of paper PMC6045584
± gives the standard deviation of the averaged measurements.

What was measured:
[1] = compound: CC/C(=C(\c1ccc(O)cc1)c1ccc(OCCN(C)C)cc1)c1ccccc1 [AFIMOXIFENE]; experiment: surviving fraction relative to DMSO-only wells; higher = less growth inhibition; conditions: exposure time: 5 days
Method in brief: (§1)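 Log-phase tumour cell lines were seeded at 250–500 cells per well in 384-well plates. After 24 hours they were exposed continuously for five days to inhibitors at 0.5, 1, 5, 10, 50, 100, 500 and 1000 nM. Viability was read by CellTiter-Glo luminescence after 10 minutes at room temperature, and surviving fraction is luminescence normalised to the median of DMSO-only wells. Each line was screened three times and kept only if replicate Pearson r >0.7 and median Z' >0.3.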

[2] = compound: C[C@@H]1CN(CC(=O)Nc2ccc3c(c2)Cc2cccc(-c4cc(=O)cc(N5CCOCC5)o4)c2S3)C[C@H](C)O1; experiment: as above; conditions: exposure time: 5 days
Method in brief: as §1

Test System	surviving fraction ([1]; 0.5 nM)	surviving fraction ([1]; 1 nM)	surviving fraction ([1]; 5 nM)	surviving fraction ([1]; 10 nM)	surviving fraction ([1]; 50 nM)	surviving fraction ([1]; 100 nM)	surviving fraction ([1]; 500 nM)	surviving fraction ([1]; 1000 nM)	surviving fraction ([2]; 0.5 nM)	surviving fraction ([2]; 1 nM)	surviving fraction ([2]; 5 nM)	surviving fraction ([2]; 10 nM)	surviving fraction ([2]; 50 nM)	surviving fraction ([2]; 100 nM)	surviving fraction ([2]; 500 nM)	surviving fraction ([2]; 1000 nM)
MDAMB157 BREAST	1.04 ± 0.05	1.01 ± 0.062	1.04 ± 0.14	1.02 ± 0.072	1.06 ± 0.022	1.01 ± 0.014	0.942 ± 0.059	0.989 ± 0.12	0.905 ± 0.074	0.972 ± 0.025	1.01 ± 0.057	1.09 ± 0.059	1 ± 0.028	1.05 ± 0.046	0.896 ± 0.022	0.89 ± 0.093
HCC1395 BREAST	1.26 ± 0.13	1.15 ± 0.057	1.33 ± 0.13	1.25 ± 0.048	1.19 ± 0.13	1.12 ± 0.12	1.04 ± 0.11	1.09 ± 0.16	0.955 ± 0.14	0.962 ± 0.022	0.936 ± 0.062	0.936 ± 0.035	0.92 ± 0.072	0.995 ± 0.08	0.919 ± 0.09	0.965 ± 0.12
SIHA CERVIX	1.1 ± 0.029	1.07 ± 0.051	1.09 ± 0.072	1.19 ± 0.031	1.15 ± 0.06	1.21 ± 0.032	1.13 ± 0.062	1.09 ± 0.058	1.04 ± 0.022	1.1 ± 0.082	1.09 ± 0.0035	1.06 ± 0.023	1.04 ± 0.062	1.08 ± 0.084	1.02 ± 0.11	0.931 ± 0.051
MG63 BONE	1.06 ± 0.04	1.04 ± 0.027	1.1 ± 0.048	1.07 ± 0.051	1.09 ± 0.05	1.05 ± 0.048	1.02 ± 0.036	1.02 ± 0.049	1.03 ± 0.032	1.03 ± 0.038	1.076 ± 0.0081	1.1 ± 0.04	1.06 ± 0.02	1.08 ± 0.028	0.971 ± 0.025	0.919 ± 0.022
HOSMNG BONE	0.922 ± 0.073	0.948 ± 0.032	0.996 ± 0.083	0.963 ± 0.038	1.1 ± 0.017	1.06 ± 0.032	1.07 ± 0.077	1.03 ± 0.078	1 ± 0.065	0.944 ± 0.013	0.982 ± 0.051	0.978 ± 0.044	1.03 ± 0.011	0.9887 ± 0.0031	1.01 ± 0.043	0.998 ± 0.056
C33A CERVIX	1.06 ± 0.065	1.07 ± 0.062	1.06 ± 0.15	1.1 ± 0.047	1.14 ± 0.083	1.21 ± 0.029	1.22 ± 0.12	1.34 ± 0.069	0.963 ± 0.082	1.01 ± 0.1	1.06 ± 0.051	1.1 ± 0.074	1.06 ± 0.067	1.14 ± 0.14	0.973 ± 0.059	0.827 ± 0.1
BT20 BREAST	1.32 ± 0.11	1.27 ± 0.07	1.24 ± 0.065	1.3 ± 0.096	1.19 ± 0.086	1.28 ± 0.037	1.7 ± 0.076	1.9 ± 0.13	1.04 ± 0.052	1.13 ± 0.044	1.1 ± 0.1	1.06 ± 0.081	0.843 ± 0.11	0.894 ± 0.089	0.902 ± 0.076	0.741 ± 0.045
MDAMB231 BREAST	0.987 ± 0.017	1.01 ± 0.032	1.01 ± 0.045	1.01 ± 0.023	1.02 ± 0.024	1.02 ± 0.018	1.01 ± 0.024	0.955 ± 0.035	0.965 ± 0.015	0.955 ± 0.016	0.993 ± 0.035	0.988 ± 0.023	0.955 ± 0.016	0.981 ± 0.021	0.73 ± 0.027	0.617 ± 0.025
SG27 HEADNECK	1.09 ± 0.16	1.06 ± 0.14	1.05 ± 0.023	1.02 ± 0.059	1.16 ± 0.063	1 ± 0.23	1.21 ± 0.11	1.1 ± 0.078	1.02 ± 0.1	0.976 ± 0.047	1.13 ± 0.079	1.02 ± 0.15	0.95 ± 0.056	0.988 ± 0.11	1.01 ± 0.061	1.03 ± 0.1
SYO1 SYNOVIAL	0.993 ± 0.023	1.01 ± 0.04	1.04 ± 0.013	1.03 ± 0.072	0.954 ± 0.035	0.982 ± 0.028	0.939 ± 0.023	1.04 ± 0.087	0.997 ± 0.021	1 ± 0.029	0.987 ± 0.049	1.07 ± 0.019	0.993 ± 0.023	1.03 ± 0.018	0.894 ± 0.019	0.781 ± 0.011
HUO3N1 BONE	1.06 ± 0.046	1.03 ± 0.038	1.1 ± 0.065	1.09 ± 0.029	1.12 ± 0.057	1.06 ± 0.043	0.932 ± 0.074	0.849 ± 0.033	1.01 ± 0.026	1 ± 0.031	1.05 ± 0.041	1.04 ± 0.041	1.04 ± 0.023	1.03 ± 0.025	0.979 ± 0.027	0.907 ± 0.026
H23 LUNG	1.06 ± 0.045	1.05 ± 0.026	1.07 ± 0.05	1.03 ± 0.016	1.07 ± 0.023	1.09 ± 0.094	1.07 ± 0.08	1.06 ± 0.11	1.08 ± 0.042	1.05 ± 0.021	1.11 ± 0.048	1.1 ± 0.033	1.09 ± 0.083	1.17 ± 0.056	1.06 ± 0.036	1.05 ± 0.045
ASKA SYNOVIAL	1.11 ± 0.056	1.18 ± 0.097	1.18 ± 0.096	1.23 ± 0.031	1.18 ± 0.029	1.17 ± 0.069	1.04 ± 0.1	1.14 ± 0.064	1.17 ± 0.013	1.21 ± 0.12	1.26 ± 0.11	1.21 ± 0.093	1.17 ± 0.059	1.15 ± 0.1	1.13 ± 0.1	0.978 ± 0.14
PCI30 HEADNECK	1.09 ± 0.017	1.07 ± 0.062	1.07 ± 0.06	1.06 ± 0.023	1.12 ± 0.045	1.05 ± 0.022	0.99 ± 0.091	1.02 ± 0.032	0.947 ± 0.047	0.947 ± 0.054	0.969 ± 0.078	1.04 ± 0.052	1.04 ± 0.064	1.03 ± 0.1	1 ± 0.034	0.867 ± 0.044
T47D BREAST	1.06 ± 0.052	1.11 ± 0.032	0.955 ± 0.0067	0.98 ± 0.048	0.95 ± 0.032	0.958 ± 0.034	0.888 ± 0.024	0.883 ± 0.037	1.02 ± 0.018	1.01 ± 0.022	1.03 ± 0.013	0.9914 ± 0.0016	1.06 ± 0.027	1.049 ± 0.0087	1.047 ± 0.0069	0.945 ± 0.051
COLO320DM LARGE INTESTINE	1.14 ± 0.071	1.05 ± 0.08	1.05 ± 0.011	1.11 ± 0.045	1.17 ± 0.079	1.18 ± 0.056	1.16 ± 0.05	1.13 ± 0.018	1.04 ± 0.11	1.06 ± 0.12	1.05 ± 0.13	1.07 ± 0.059	1.04 ± 0.033	1.09 ± 0.037	1.03 ± 0.056	0.99 ± 0.015
